Data on 13 molecules can be found in patent US7589066B2, “Potent and specific immunoproteasome inhibitors” (The University of North Carolina at Chapel Hill, priority 2005, dated 2009).

Molecules are shown by their SMILES. Where two headings read alike, the source gives them in different places. Square brackets hold non-standard residues; d marks the D form. Peptide text beside a SMILES is read from it. * marks the point of attachment. hPhe = N[CH](CCc1ccccc1)C(=O)O; Cbz = O=C(OCc1ccccc1)*

For test [1], the target named is T1, proteasome from spleen tissue (LMP-2/7/10 isoform, immunoproteasome), chymotrypsin-like (ChT-L) activity (UniProt Q3T112).
T1 construct: Ki (μM) Spleen Proteasome, ChT-L component; other: substrate Cbz-GGF-pAB, Dixon plots, without preincubation; other: substrate Cbz-GGF-pAB
T1 sequence (Q3T112 1-276): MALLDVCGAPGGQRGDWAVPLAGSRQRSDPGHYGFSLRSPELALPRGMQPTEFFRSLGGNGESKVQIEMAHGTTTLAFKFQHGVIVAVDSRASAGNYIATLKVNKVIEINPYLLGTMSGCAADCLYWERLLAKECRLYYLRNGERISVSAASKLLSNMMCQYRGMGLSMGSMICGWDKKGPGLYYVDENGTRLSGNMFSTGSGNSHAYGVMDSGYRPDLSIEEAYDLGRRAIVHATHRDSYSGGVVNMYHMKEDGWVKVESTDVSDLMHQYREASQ
Put plainly: Inhibition of ChT-L activity of spleen proteasome (immunoproteasome). The test is classed as biochemical.
Excerpt: (§1) To investigate the possibility that inhibitors specific for the immunoproteasome could be identified, the proteasome from pituitary tissue, representative of the X/Y/Z isoform (i.e., the constitutive proteasome), and the proteasome from spleen tissue, representative of the LMP-2/7/10 isoform (i.e., the immunoproteasome), were each purified to homogeneity. A panel of peptidyl-aldehyde substrate-related inhibitors were then screened for their ability to inhibit the chymotrypsin-like (ChT-L) and branched chain amino acid preferring (BrAAP) activities of these two proteasome preparations. […] The same was true for Cbz-FL-CHO, the peptide aldehyde version of bortezomib.
(§2) Dixon plots were used to obtain Ki values. Determinations were carried out at three substrate concentrations and at six different inhibitor concentrations without preincubation of the enzyme with inhibitors. Substrate concentrations were 0.1 to 0.4 mM for the BrAAP activity of the spleen, and 0.5 to 4.0 mM for the ChT-L activity, and 1.0 to 4.0 mM for all others. The substrate for the BrAAP activity was Cbz-GPALG-pAB, and Cbz-GGF-pAB for the ChT-L activity. Data are averages±standard error, with the number of determinations shown in parentheses.
as §2, with “for the […] activity of” for “for the BrAAP activity of”, “in parentheses. † indicates IC50 instead of Ki. NI indicates no inhibition in the tested range.” for “in parentheses.”
as §2, with “parentheses. † indicates IC50 instead of Ki. NI indicates no inhibition in the tested range.” for “parentheses.”

The target of test [2] is T2, proteasome from pituitary tissue (X/Y/Z isoform, constitutive proteasome), chymotrypsin-like (ChT-L) activity (Bos taurus, UniProt Q32KL2).
T2 construct: the proteasome from pituitary tissue, representative of the X/Y/Z isoform; from tissue; host or cells: pituitary
As to the kind of experiment: Inhibition of ChT-L activity of pituitary proteasome (constitutive proteasome). The test is classed as biochemical. As to conditions: substrate Cbz-GGF-pAB; for Ki: Dixon plots, without preincubation, read-out: Ki (μM) Pituitary Proteasome, ChT-L component; for IC50: read-out: IC50 instead of Ki (†), Pituitary Proteasome, ChT-L component. From the text:
To investigate the possibility that inhibitors specific for the immunoproteasome could be identified, the proteasome from pituitary tissue, representative of the X/Y/Z isoform (i.e., the constitutive proteasome), and the proteasome from spleen tissue, representative of the LMP-2/7/10 isoform (i.e., the immunoproteasome), were each purified to homogeneity. A panel of peptidyl-aldehyde substrate-related inhibitors were then screened for their ability to inhibit the chymotrypsin-like (ChT-L) and branched chain amino acid preferring (BrAAP) activities of these two proteasome preparations.
[…] Determinations were carried out at three substrate concentrations and at six different inhibitor concentrations without preincubation of the enzyme with inhibitors. Substrate concentrations were 0.1 to 0.4 mM for the BrAAP activity of the spleen, and 0.5 to 4.0 mM for the ChT-L activity, and 1.0 to 4.0 mM for all others. The substrate for the BrAAP activity was Cbz-GPALG-pAB, and Cbz-GGF-pAB for the ChT-L activity. Data are averages±standard error, with the number of determinations shown in parentheses.
[…] Determinations were carried out at three substrate concentrations and at six different inhibitor concentrations without preincubation of the enzyme with inhibitors. Substrate concentrations were 0.1 to 0.4 mM for the […] activity of the spleen, and 0.5 to 4.0 mM for the ChT-L activity, and 1.0 to 4.0 mM for all others. The substrate for the BrAAP activity was Cbz-GPALG-pAB, and Cbz-GGF-pAB for the ChT-L activity. Data are averages±standard error, with the number of determinations shown in parentheses. † indicates IC50 instead of Ki. NI indicates no inhibition in the tested range.
[…] Determinations were carried out at three substrate concentrations and at six different inhibitor concentrations without preincubation of the enzyme with inhibitors. Substrate concentrations were 0.1 to 0.4 mM for the BrAAP activity of the spleen, and 0.5 to 4.0 mM for the ChT-L activity, and 1.0 to 4.0 mM for all others. The substrate for the BrAAP activity was Cbz-GPALG-pAB, and Cbz-GGF-pAB for the ChT-L activity. Data are averages±standard error, with the number of determinations shown in parentheses. † indicates IC50 instead of Ki. NI indicates no inhibition in the tested range.

Test [3] deals with proteasome from spleen tissue (LMP-2/7/10 isoform, immunoproteasome), branched chain amino acid preferring (BrAAP) activity. Put plainly: Inhibition of BrAAP activity of spleen proteasome (immunoproteasome). As to conditions: spleen versus pituitary proteasome, in vitro. In kind it is biochemical.
Excerpt: as §1, §2
Dixon plots were used to obtain Ki values. […]

Test [4] deals with NCI-H929 human myeloma cells. As to the kind of experiment: Proteasome inhibitor-induced apoptosis, ELISA of apoptotic nuclear DNA fragmentation. The test is classed as cell-based. As to conditions: 18 hours. On the procedure: (§3) Cultured NCI-H929 human myeloma cells, IM-9 human B-lymphoblasts, HPAC human pancreatic adenocarcinoma cells, and Hs 294T human melanoma cells were exposed to vehicle, 5 nM bortezomib (PS-341), or 50 μM Cbz-LnL-CHO for 18 hours. Apoptosis was evaluated using an enzyme-linked immunosorbent assay that detects apoptotic nuclear DNA fragmentation. Cell death is expressed as the fold-increase in apoptosis over the vehicle control, which was arbitrarily set at 1.0. Referring now to FIG. 2, the effect of PS-341 is shown in the open bar graphs, while Cbz-LnL-CHO (IPSI-001) is in the stippled bar graphs. The mean and standard error of the mean are shown for each condition from four independent experiments.
(In an ELISA, binding on a coated surface is turned into a signal by an enzyme label.)

The subject of test [5] is IM-9 human B-lymphoblasts. The test is described as above. The test is classed as cell-based. As to conditions: 18 hours. On the procedure: as §3
For test [6], the system named is proteasome from spleen tissue (LMP-2/7/10 isoform, immunoproteasome), chymotrypsin-like (ChT-L) activity. As to the kind of experiment: Inhibition of ChT-L activity of spleen proteasome (immunoproteasome). The test is classed as biochemical. As to conditions: spleen versus pituitary proteasome, in vitro.
Excerpt: as §1, §2
(§4) Dixon plots were used to obtain Ki values. Determinations were carried out at three substrate concentrations and at six different inhibitor concentrations without preincubation of the enzyme with inhibitors. Substrate concentrations were 0.1 to 0.4 mM for the BrMP activity of the spleen, and 0.5 to 4.0 mM for the ChT-L activity, and 1.0 to 4.0 mM for all others. The substrate for the BrAAP activity was Cbz-GPALG-pAB, and Cbz-GGF-pAB for the ChT-L activity. Data are averages±standard error, with the number of determinations shown in parentheses. † indicates IC50 instead of Ki. NI indicates no inhibition in the tested range.
as §4, with “BrAAP” for “BrMP”

For test [7], the system named is HPAC human pancreatic adenocarcinoma cells. Put plainly: Proteasome inhibitor-induced apoptosis, ELISA of apoptotic nuclear DNA fragmentation. In kind it is cell-based. As to conditions: 5 nM, 18 hours. On the procedure:
as §3

Test [8] has as its system Hs 294T human melanoma cells. The test is described as above. As to conditions: 5 nM, 18 hours. In kind it is cell-based. On the procedure:
as §3

A further test has as its system myeloma. As to conditions: phase II study that led to FDA approval; cited from earlier work.
The mark [9] stands for this setting: substrate Cbz-GGF-pAB, Dixon plots, without preincubation; read-out: Ki (μM) Spleen Proteasome, ChT-L component.
[10] abbreviates: read-out: Ki (μM) Spleen Proteasome, ChT-L component; substrate Cbz-GGF-pAB, Dixon plots, without preincubation.

Usually Ki stands for a measure of affinity in units of concentration, obtained from inhibition or displacement. For orientation: IC50 means the concentration that inhibits the measured activity by half.

Take `CC(C)C[C@@H](C=O)NC(=O)[C@H](CC(C)C)NC(=O)[C@H](CC(C)C)NC(=O)OCc1ccccc1` [Cbz-LLL-CHO, reference compound] (Cbz-Leu-Leu-Leu-aldehyde): the inhibition constant Ki in test [1] (setting [9]) was determined as 5.1 ± 0.9 µM; in [2] it was 6.9 ± 0.84 µM.

Regarding `CCCCC(C=O)NC(=O)C(CC(C)C)NC(=O)OCc1ccccc1` (stereo not drawn) [Cbz-LnL-CHO, N-carbobenzyloxy-leucyl-norleucinal], in test [3], the “preference for the LMP-containing BrAAP proteasome activity” value is recorded as “greater than 160 fold”. Besides, the “induction of apoptosis (fold-increase over the vehicle control)” value is reported as “induces significant apoptosis” in test [4] (NCI-H929, 50 μM) and “induces significant apoptosis” in [5] (IM-9, 50 μM). Also, in [6], the “preference for the LMP-containing ChT-L proteasome activity” value is listed as “greater than 100 fold”. For the same molecule, the inhibition constant Ki in test [1] (setting [9]) was 1.03 ± 0.17 µM; in test [2], 105 ± 1.3 µM.

`CC(C)CC(C=O)NC(=O)C(C)NC(=O)C(CC(C)C)NC(=O)OCc1ccccc1` (stereo not drawn) [Cbz-LAL-CHO, reference compound] (Cbz-Leu-Ala-Leu-aldehyde; configuration not given here): the figures for the inhibition constant (Ki) in test [1] (setting [9]) and in [2] were 1.45 ± 1.05 µM and 0.82 ± 0.15 µM, respectively.

In the case of `CC(C)CC(NC(=O)OCc1ccccc1)C(=O)NC(C=O)Cc1ccccc1` (stereo not drawn) [Cbz-LF-CHO, N-carbobenzyloxy-leucyl-phenylalanylal] (Cbz-Leu-Phe-aldehyde; configuration not given here), in test [1] (setting [9]), the inhibition constant (Ki) is 5.6 ± 0.2 µM. Moreover, the IC50 in [2] is 154 µM.

For the molecule `O=CC(Cc1ccccc1)NC(=O)C(CCc1ccccc1)NC(=O)OCc1ccccc1` (stereo not drawn) [Cbz-hFF-CHO, N-carbobenzyloxy-homophenylalanyl-phenylalanylal] (Cbz-[hPhe]-Phe-aldehyde; configuration not given here), the Ki in [1] (setting [9]) stood at 2.74 ± 0.33 µM. The IC50 in [2] is 40 µM.

With `CC(C)CC(NC(=O)OCc1ccccc1)C(=O)NC(CC(C)C)C(=O)NC(C=O)Cc1ccccc1` (stereo not drawn) [Cbz-LLF-CHO, N-carbobenzyloxy-leucyl-leucyl-phenylalanylal] (Cbz-Leu-Leu-Phe-aldehyde; configuration not given here), the Ki in [1] (setting [10]) turned out to be 5.97 ± 1.4 µM; in test [2], 1.6 ± 0.5 µM.

Turning to `CC(NC(=O)OCc1ccccc1)C(=O)NC(C=O)Cc1ccccc1` (stereo not drawn) [Cbz-AF-CHO, N-carbobenzyloxy-alanyl-phenylalanylal], the IC50 amounted to 24 µM in test [1] (substrate Cbz-GGF-pAB; read-out: IC50 instead of Ki (†), Spleen Proteasome, ChT-L component) and 380 µM in test [2].

Consider `CC(C)C[C@H](NC(=O)[C@H](Cc1ccccc1)NC(=O)c1cnccn1)B(O)O` [Bortezomib, reference compound], for which the “induction of apoptosis (fold-increase over the vehicle control)” value is recorded as “induces apoptosis roughly equally in all of the cell lines tested” in [4] (NCI-H929, 5 nM); “induces apoptosis roughly equally in all of the cell lines tested” in test [5] (IM-9, 5 nM); “induces apoptosis roughly equally in all of the cell lines tested” in [7]; “induces apoptosis roughly equally in all of the cell lines tested” in test [8]. Also, the “patients with myeloma with partial responses or better” value in the test with myeloma is recorded as 28%.

Turning to `O=CC(Cc1ccccc1)NC(=O)C(Cc1ccccc1)NC(=O)CNC(=O)OCc1ccccc1` (stereo not drawn) [Cbz-GFF-CHO, N-carbobenzyloxy-glycyl-phenylalanyl-phenylalanylal] (Cbz-Gly-Phe-Phe-aldehyde; configuration not given here), the IC50 in [1] (read-out: IC50 instead of Ki (†), Spleen Proteasome, ChT-L component; substrate Cbz-GGF-pAB) stood at 1.03 µM; in [2], 2.7 µM.

Turning to `O=CC(Cc1ccccc1)NC(=O)C(Cc1ccccc1)NC(=O)C1CCCN1C(=O)CNC(=O)OCc1ccccc1` (stereo not drawn) [Cbz-GPFF-CHO, N-carbobenzyloxy-glycyl-prolyl-phenylalanyl-phenylalanylal] (Cbz-GPFF-aldehyde; configuration not given here), the Ki worked out at 5.6 ± 1.1 µM in [1] (setting [10]) and 58 ± 1.8 µM in test [2].

`CC(NC(=O)C1CCCN1C(=O)CNC(=O)OCc1ccccc1)C(=O)NC(C=O)Cc1ccccc1` (stereo not drawn) [Cbz-GPAF-CHO, N-carbobenzyloxy-glycyl-prolyl-alanyl-phenylalanylal] (Cbz-GPAF-aldehyde; configuration not given here): the inhibition constant Ki was found to be 8.4 ± 0.52 µM in test [1] (setting [10]) and 460 ± 66 µM in test [2].

Consider `O=CC(Cc1ccccc1)NC(=O)C(Cc1ccccc1)NC(=O)OCc1ccccc1` (stereo not drawn) [Cbz-FF-CHO, N-carbobenzyloxy-phenylalanyl-phenylalanylal] (Cbz-Phe-Phe-aldehyde; configuration not given here), for which the results for the inhibition constant (Ki) in test [1] (setting [9]) and in test [2] were 4 ± 0.27 µM and 56 ± 4.4 µM, respectively.

Turning to `CC(C)CC(C=O)NC(=O)C(Cc1ccccc1)NC(=O)OCc1ccccc1` (stereo not drawn) [Cbz-FL-CHO, reference compound] (Cbz-Phe-Leu-aldehyde; configuration not given here), the Ki in [1] (setting [9]) stood at 2.1 ± 0.29 µM; in test [2], 5.55 ± 0.47 µM.
